Results from ChEMBL document CHEMBL3885861, “Open TG-GATES”.

Organism: Rattus norvegicus
Assay: Open TG-GATES - Regimen: Daily Repeat
Type: toxicity, organism-based, Sprague-Dawley
Set-up: regimen Daily Repeat, gender Male, age 6 weeks
Conditions: in vivo, po, route gavage; for A/G / ALP / ALT / AST / BUN / CRE / Ca / Cl / DBIL / GLC / IP / K / LDH / Na / PL / RALB / TBIL / TC / TG / TP / gamma-GTP: tissue Plasma; for APTT / Bas / Eos / Fbg / Hb / Ht / Lym / MCH / MCHC / MCV / Mono / Neu / PT / Plat / RBC / Ret / WBC: tissue Blood; for KIDNEY_L / KIDNEY_R / KIDNEY_TOTAL: tissue Kidney; for LIVER: tissue Liver
[1] = 0 mg/kg, […], dose level Control, time 28 day
[2] = 3 mg/kg, 72 h, dose level Low, time 3 day
[3] = 3 mg/kg, […], dose level Low, time 7 day
[4] = 3 mg/kg, […], dose level Low, time 14 day
[5] = 3 mg/kg, […], dose level Low, time 28 day

Compound: C[C@H]1C(=O)O[C@@H]2CCN3CC=C(COC(=O)[C@](C)(O)[C@]1(C)O)[C@H]23 [MONOCROTALINE]
- A/G [1]: 1.1
- ALP [1]: 1093.2 IU/L
- ALT [1]: 53 IU/L
- AST [1]: 79.6 IU/L
- BUN [1]: 18.8 mg/dL
- CRE [1]: 0.2 mg/dL
- Ca [1]: 10.6 mg/dL
- Cl [1]: 106.8 meq/L
- DBIL [1]: 0 mg/dL
- GLC [1]: 190.2 mg/dL
- IP [1]: 6.3 mg/dL
- K [1]: 4.1 meq/L
- LDH [1]: 176.4 IU/L
- Na [1]: 141.8 meq/L
- PL [1]: 152.6 mg/dL
- RALB [1]: 3.2 g/dL
- TBIL [1]: 0.01 mg/dL
- TC [1]: 74 mg/dL
- TG [1]: 160.4 mg/dL
- TP [1]: 6 g/dL
- gamma-GTP [1]: 1 IU/L
- TERMINAL_BW [2]: 234.1 g
- APTT [2]: 21.2 s
- Bas [2]: 0%
- Eos [2]: 0.8%
- Fbg [2]: 311.8 mg/dL
- Hb [2]: 13.5 g/dL
- Ht [2]: 39.5%
- Lym [2]: 80.2%
- MCH [2]: 20.8 pg
- MCHC [2]: 34%
- MCV [2]: 61.2 fL
- Mono [2]: 2%
- Neu [2]: 16.2%
- PT [2]: 15.9 s
- Plat [2]: 130.1 x10_4/uL
- RBC [2]: 646.2 x10_4/ul
- Ret [2]: 7.1%
- WBC [2]: 122.6 x10_2/uL
- KIDNEY_L [2]: 1 g
- KIDNEY_R [2]: 1 g
- KIDNEY_TOTAL [2]: 2 g
- LIVER [2]: 10.8 g
- A/G [2]: 1.2
- ALP [2]: 1957.6 IU/L
- ALT [2]: 43.6 IU/L
- AST [2]: 74.6 IU/L
- BUN [2]: 16.4 mg/dL
- CRE [2]: 0.1 mg/dL
- Ca [2]: 10.7 mg/dL
- Cl [2]: 106 meq/L
- DBIL [2]: 0.002 mg/dL
- GLC [2]: 187.2 mg/dL
- IP [2]: 6.9 mg/dL
- K [2]: 4.4 meq/L
- LDH [2]: 267.2 IU/L
- Na [2]: 142.8 meq/L
- PL [2]: 154 mg/dL
- RALB [2]: 3.2 g/dL
- TBIL [2]: 0.014 mg/dL
- TC [2]: 83.8 mg/dL
- TG [2]: 104 mg/dL
- TP [2]: 5.7 g/dL
- gamma-GTP [2]: 1.2 IU/L
- TERMINAL_BW [3]: 266.3 g
- TERMINAL_BW [4]: 294.8 g
- TERMINAL_BW [5]: 359.6 g
- APTT [3]: 22.4 s
- Bas [3]: 0%
- Eos [3]: 0.8%
- Fbg [3]: 328.2 mg/dL
- Hb [3]: 13.9 g/dL
- Ht [3]: 39.9%
- Lym [3]: 80.4%
- MCH [3]: 21.1 pg
- MCHC [3]: 34.8%
- MCV [3]: 60.5 fL
- Mono [3]: 2.4%
- Neu [3]: 15.2%
- PT [3]: 16.2 s
- Plat [3]: 119.7 x10_4/uL
- RBC [3]: 659.4 x10_4/ul
- Ret [3]: 5.7%
- WBC [3]: 105.4 x10_2/uL
- APTT [4]: 20.2 s
- Bas [4]: 0%
- Eos [4]: 0.4%
- Fbg [4]: 413 mg/dL
- Hb [4]: 14.3 g/dL
- Ht [4]: 40.6%
- Lym [4]: 81.6%
- MCH [4]: 20.1 pg
- MCHC [4]: 35%
- MCV [4]: 57.4 fL
- Mono [4]: 3.8%
- Neu [4]: 12.8%
- PT [4]: 16 s
- Plat [4]: 120.5 x10_4/uL
- RBC [4]: 708 x10_4/ul
- Ret [4]: 3.3%
- WBC [4]: 187.2 x10_2/uL
- APTT [5]: 23 s
- Bas [5]: 0%
- Eos [5]: 0.8%
- Fbg [5]: 332.8 mg/dL
- Hb [5]: 14.1 g/dL
- Ht [5]: 40.2%
- Lym [5]: 84.2%
- MCH [5]: 19 pg
- MCHC [5]: 35.1%
- MCV [5]: 54 fL
- Mono [5]: 1.8%
- Neu [5]: 12.4%
- PT [5]: 15.4 s
- Plat [5]: 102.5 x10_4/uL
- RBC [5]: 745.6 x10_4/ul
- Ret [5]: 4.2%
- WBC [5]: 146.6 x10_2/uL
- KIDNEY_L [3]: 1.1 g
- KIDNEY_R [3]: 1.2 g
- KIDNEY_TOTAL [3]: 2.3 g
- KIDNEY_L [4]: 1.2 g
- KIDNEY_R [4]: 1.2 g
- KIDNEY_TOTAL [4]: 2.4 g
- KIDNEY_L [5]: 1.3 g
- KIDNEY_R [5]: 1.3 g
- KIDNEY_TOTAL [5]: 2.6 g
- LIVER [3]: 12.4 g
- LIVER [4]: 13.6 g
- LIVER [5]: 17.2 g
- A/G [3]: 1.1
- ALP [3]: 1693.8 IU/L
- ALT [3]: 43.2 IU/L
- AST [3]: 75 IU/L
- BUN [3]: 17 mg/dL
- CRE [3]: 0.2 mg/dL
- Ca [3]: 10.7 mg/dL
- Cl [3]: 105.6 meq/L
- DBIL [3]: 0 mg/dL
- GLC [3]: 187 mg/dL
- IP [3]: 7 mg/dL
- K [3]: 4.2 meq/L
- LDH [3]: 248 IU/L
- Na [3]: 142.6 meq/L
- PL [3]: 151.6 mg/dL
- RALB [3]: 3.1 g/dL
- TBIL [3]: 0.008 mg/dL
- TC [3]: 80.8 mg/dL
- TG [3]: 121.8 mg/dL
- TP [3]: 5.8 g/dL
- gamma-GTP [3]: 1.2 IU/L
- A/G [4]: 1
